Laboratory results taken from US9827216B2, “Nutritional support to prevent and/or mitigate bone marrow toxicity from a cancerous tumor” (Nestec S.A., priority 2008, dated 2017).

What was measured:
[1] = tested on: tongue and/or esophageal tumors; assay: Carcinogen induction of tongue and/or esophageal tumors; format: in vivo, CB6F1-Tg rasH2@Jcl mice; conditions: carcinogen-induced
Text: Male CB6F1-Tg rasH2@Jcl mice (Tg) at 8 weeks of age are obtained and maintained in plastic cages. They are all allowed free access to a powdered basal diet of CRF (Charles River Formula)-1. A carcinogen, 4-nitroquinoline 1-oxide is used to induce tongue and/or esophageal tumors in this study.

γδ T cells = conditions: acid hydrolysed, diluted in media; peripheral blood mononuclear cells; (5%-75%); cited from earlier work
immune cells = assay: Nutritional intervention on immune cells in tumor burdened animals with and without chemotherapy (FIG. 11); format: in vivo; conditions: during the second phase (tumor-induced toxicity)
Text: FIG. 11 illustrates a graph of the effect of nutritional intervention on immune cells in tumor burdened animals with and without chemotherapy in accordance with an embodiment of the present disclosure.

[2] = tested on: MCA-OVA 1×10^6 tumor cells; assay: Tumor growth evaluation, test diets with or without chemotherapy (Example 2); format: in vivo, mice
Procedure: (§1) The animals were distributed into 7 different group diets. There was a control group that received the diet AIN 93 for adult rodents (maintenance). […] Control animals without chemotherapeutic treatment were run in parallel for all tested diets. Body weight was assessed every two days. Blood samples were obtained at day 2, 4 and 10 after the chemo-treatment and at sacrifice (14 or 28 days). An autopsy was performed and tumor mass was assessed.
Methylcholanthrene (MCA) induced sarcoma cell line expressing the exogenous antigen ovalbumin (OVA) was grown in DMEM or RPMI 1640 supplemented with 2 mM L-glutamine, 10 mM HEPES, 20 μM 2-mercaptoethanol, 150 U/mL streptomycin, 200 U/mL penicillin, and 10% heat-inactivated FBS. 1×10^6 tumor cells were injected in the flank of the mice 6 days prior to the chemotherapy.
Growth of tumors was monitored every 2 d by using calipers, and tumor volume was calculated by using the formula length×width×width×0.52 mm^3.

[3] = tested on: red blood cell, white blood cell and immune cell populations; assay: Haematological evaluation and flow cytometric analysis, test diets with chemotherapy (Example 2); format: in vivo, mice; conditions: for Global lymphocyte population: following chemotherapy, supplemented diets
Procedure: as §1, with “(maintenance). Test diets were administered in doses appropriate to the animal model: (a) Ctrl diet were supplemented with 1% (w/w) L-arginine, (b) 25% of the protein was replaced by glutamine, (c) 1% (w/w) L-citrulline, (d) 1 g/Kg body weight with active hexose correlated compound, (e) 20 mg/day of RNA nucleotides and (f) 25 mg/day of lactoferrin.” for “(maintenance).”

[4] = tested on: red blood cell, white blood cell and immune cell populations; assay: Haematological evaluation and flow cytometric analysis of tumor-bearing mice after chemotherapy (Example 1); format: in vivo; conditions: after the chemotherapy
[5] = Body weight of tumor-bearing mice on test diets with chemotherapy (Example 2); format: in vivo; conditions: maximal dose (10 mg/kg)
Procedure: as §1, with “(maintenance). Test diets were administered in doses appropriate to the animal model: (a) Ctrl diet were supplemented with 1% (w/w) L-arginine, (b) 25% of the protein was replaced by glutamine, (c) 1% (w/w) L-citrulline, (d) 1 g/Kg body weight with active hexose correlated compound, (e) 20 mg/day of RNA nucleotides and (f) 25 mg/day of lactoferrin.” for “(maintenance).”

[6] = Body weight of tumor-bearing mice after chemotherapy (Example 1); conditions: maximal dose (10 mg/kg), of the initial body weight
Procedure: Inbred eight-week-old C57BL/6 (H-2b) mice were used in the experiments. Mice were inoculated subcutaneously (s.c.) on the left flank with 1×10^6 tumor cells, and tumor growth was monitored every 2 days by caliper measurement. 6 days after the tumor inoculation the animals were treated either with oxaliplatin or doxorubicin. Tumor growth was monitored every two days after the chemotherapeutic treatment and they were sacrificed after two weeks of tumor implantation. Some experiments were carried out until 28 days post-chemo to better assess tumor growth.
Body weight was assessed every two days until sacrifice.

NK cell = conditions: about 750 mg per day for two weeks, cited from earlier work

## O=[N+]([O-])c1cc[n+]([O-])c2ccccc12 [4-nitroquinoline 1-oxide]
[1]
  mice developing tumors in the esophagus: 60%
  mice developing tumors on the tongue: 100%

## CCNC(=O)CC[C@H](N)C(=O)O [L-theanine]
γδ T cells
  expansion of γδ T cells: 15 fold

## N=C(N)NCCC[C@H](N)C(=O)O [arginine, L-arginine]
Immune cells
  immune cell population / concentration: increase immune cell concentration
[2]; combination with the chemotherapy treatment vs chemotherapy alone (FIG. 4)
  tumor size: further reduced the tumor size
[2]; supplemented diet compared to other groups
  progression of the implanted tumor: delayed progression
[3]; around 10 days post-chemotherapy, supplemented diet
  loss of CD3+ cells: partially modulated
[3]; diet supplemented 1% (w/w), between days 6 and 10 post-chemo, vs control diet and other treatments (FIG. 3)
  fall of erythrocytes after chemotherapy: prevented the marked fall of erythrocytes

## NC(=O)NCCC[C@H](N)C(=O)O [citrulline, L-citrulline]
[3]
  Global lymphocyte population: less depressed

## NC(=O)CC[C@H](N)C(=O)O [glutamine]
[3]
  Global lymphocyte population: less depressed

## O=C1[O][Pt]2([NH][C@@H]3CCCC[C@H]3[NH]2)[O]C1=O [oxaliplatin]
[4]
  white blood cell counts: leukocyte counts that were higher that the baseline counts
[5]
  Maximal weight loss: around 15%
[6]
  Maximal weight loss: around 15%

## vitamin E
NK cell; all patients studied
  NKG2D expression: small but consistent induction
NK cell; cancer patients
  NK cell cytolytic activity: significantly improved
